Literature values as cited in US20170247690A1, “ONCOVIRAL TREATMENT WITH NUCLEASE AND CHEMOTHERAPEUTIC” (priority 2016, published 2017).

How the values were obtained:
proteasome T-L activity = details: animal model studies
20S proteasomes = 20S proteasomes (Homo sapiens, UniProt Q99436); details: purified 20S proteasomes

SMILES | T-L proteasome activity in vivo (proteasome T-L activity) | EC50 for trypsin-like (T-L) activity, comparison (20S proteasomes)
CC(C)C[C@H](NC(=O)[C@H](Cc1ccccc1)NC(=O)c1cnccn1)B(O)O [bortezomib] | enhances T-L proteasome activity | 
C[C@@]12OC(=O)[C@]1([C@@H](O)[C@@H]1C=CCCC1)NC(=O)[C@@H]2CCCl [salinosporamide A, Salinosporamide A] | marked inhibition of T-L activity | lower EC50 for trypsin-like (T-L) activity than does bortezomib
